Experimental data taken from patent US20200256880A1, “Neuronal Assay Method Involving Calcineurin” (The Broad Institute, Inc., priority 2017, published 2020).

Legend:
[1] = tested on: S469 CNAα phosphorylation in rat hippocampal neurons; experiment: Pharmacological blockade of glutamate receptors and L-type Ca channels, with or without bicuculline; phospho-S469 CNAα at synapsin-marked synapses; assay type: cell-based; conditions: baseline and bicuculine-induced; localized to synapses marked by synapsin
Excerpt: (A) Rat hippocampal neurons grown in 96-well plates were stimulated with various plasticity induction paradigms or modulators of neuronal activity levels, fixed and stained for phospho-S469 CNAα and MAP2, and imaged. (B) Quantification of phospho-S469 CNAα levels within MAP2-positive dendrites in wells shown in (A). (C) Quantification of total CNAα levels within MAP2-positive dendrites in wells shown in (A). (D) Rat hippocampal neurons were pretreated with vehicle, DNQX, nifedipine, […], or a combination of all three (with group listed in this order from left to right in panel (D)) prior and after treatment with bicuculline. Neurons were then fixed and stained for phospho-S469 CNAα and synapsin and imaged on a Phenix® (Perkin Elmer) imaging system, a high content imaging system. Shown is the phospho-S469 CNAα levels localized to synapses marked by synapsin. Bic=bicuculine. *≤0.05 compared to control sample, **<0.01, ***<0.001, and ****<0.0001 compared to control sample. For FIG. 7D, statistics were derived by comparing the pharmacological condition with the equivalent control condition, either vehicle or bicucculine treated.
Next, the dependency of S469 CNAα phosphorylation was assessed when neurons were treated by blockade of glutamate receptors and L-type Ca channels using pharmacological blockers. […]

[2] = tested on: phospho-S469 CNAα in rat hippocampal neurons; assay type: cell-based
[3] = tested on: phosphorylated RII (pRII) peptide; experiment: Calcineurin phosphatase enzyme assay with pRII peptide; assay type: biochemical, human; conditions: recombinant CNAα/CNB1 holoenzyme, pRII substrate, in the presence of CaM
Protocol: To investigate whether phosphorylation of CNAα Ser469 modifies calcineurin phosphatase activity, a phosphomimetic mutant was generated by replacing S469 with E469 in purified, recombinant human calcineurin. The S469E mutant or wild type of CNAα was co-expressed with CNB1 subunit in E. coli and co-purified. Both mutant and wild type show similar expression level and purity. Their concentrations were quantified by OD280 and CaM titration.
Enzyme activity was then assessed. CN enzymatic parameters for wild-type and S469E mutant proteins were measured using phosphorylated RII (pRII) peptide in a buffer containing 50 mM HEPES (pH=7.0), 1 mM CaCl2, 1 mM MnCl2, 0.5 mM dithiothreitol (DTT), and 0.1 mg/ml bovine serum albumin (BSA). Phosphate product release was monitored at 620 nm on SpectraMax_i3x spectrophotometer (Molecular Devices) with a 96-well plate-based calcineurin phosphatase assay kit (Abcam). Briefly, CN (40 nM) and CM (200 nM) were pre-mixed in 2× assay buffer. The reaction was initiated by addition of 25 μl pRII substrate (in H2O) to equal volume of CN/CaM mixture. The final concentration of pRII used ranged from 12 μM to 750 μM. Reaction was stopped by green quench reagent after 20 minutes. Km was determined using nonlinear regression of the Michaelis-Menten equation.

Compound | levels of phospho-S469 CNAα within dendrites [2] | further results
NC(CCCP(=O)(O)O)C(=O)O (stereo not drawn) [AP5] | – | S469 CNAα phosphorylation [1]: most strongly reducing
N[C@H](C(=O)O)c1cc(O)cc(O)c1 [DHPG, dihydroxypheylglycine] | significantly and robustly increased | –
CN[C@H](CC(=O)O)C(=O)O [NMDA, N-methyl-D-asparatate] | significantly and robustly increased | –
NC1=N[C@H](O)[C@H]2[C@H]3O[C@]4(O)O[C@@H]([C@@H](O)[C@@]2(N1)[C@@H]4O)[C@]3(O)CO [TTX, tetrodotoxin] | decrease | –
CC(C)NCC(O)c1ccc(O)c(O)c1 (stereo not drawn) [isoproterenol] | significantly and robustly increased | –
S469E: phosphomimetic mutant of recombinant human CNAα (S469 replaced with E469) co-expressed with CNB1 | – | Km [3]: 256 µM
